# According to paper PMC8635421, “Illumination of serotonin transporter mechanism and role of the allosteric site” (Science Advances, 2021):
# Key:
# SERT [1] = biological target: T1, SERT (Homo sapiens, UniProt P31645); assay: biochemical; type: binding; conditions: competition with [3H]paroxetine, SERT in nanodiscs, 100 mM NaCl, 20 nM [3H]paroxetine, n = 3 technical replicates
# T1 construct: N- and C-terminally truncated but otherwise wild-type (ΔN72, ΔC13); GFP (C); Strep tag (purification tag); made in house; host or cells: HEK-293S GnTI- cells, baculovirus-mediated transduction
# Method: (§1) All the competition-binding experiments were performed using scintillation proximity assays (SPAs) ([58]) with Cu-YSi beads (1 mg ml^−1) in SPA buffer containing 20 mM tris-HCl (pH 8), 100 mM NaCl, or 100 mM KCl. […] For the [^3H]paroxetine experiments, 1 nM SERT was used along with 0.3 μM to 10 mM of the cold competitors and 20 nM [^3H]paroxetine. […] Experiments were measured in triplicate. The error bars for each data point represent the SEM Ki values and were determined with the Cheng-Prusoff equation ([59]) in GraphPad Prism.
# SERT [2] = biological target: T1, SERT; assay: Uptake of 3H-labeled N-indole methyl derivative in HEK-293S GnTI- cells transduced with ΔN72/C13 SERT; type: cell-based; conditions: 3H-labeled compound, fig. S3H
# Method: To measure the uptake of the N-indole methyl derivative, 1 × 10^5 HEK-293S GnTI^− cells were transduced with viruses for ΔN72/C13 SERT. The cells were plated into 96-well plates coated with poly-D-lysine. After 24 hours, cells were washed with uptake buffer [25 mM Hepes-tris (pH 7), 130 mM NaCl, 5.4 mM KCl, 1.2 mM CaCl2, 1.2 mM MgSO4, 1 mM ascorbic acid, and 5 mM glucose]. The custom-synthesized [^3H]3-(2-aminoethyl)-1-methyl-1H-indol-5-ol hydrochloride isotope was diluted 1:1000 with unlabeled ligand, and a final concentration 0.78 to 100 μM was added to the cells. Uptake was stopped at 5 min by rapidly washing cells three times with 100 μl of uptake buffer, solubilizing with 20 μl of 1% Triton-X100, followed by addition of 200 μl of scintillation fluid to each well. A final concentration of 100 μM S-citalopram was added to the cells to estimate nonspecific counts. The amount of labeled 3-(2-aminoethyl)-1-methyl-1H-indol-5-ol hydrochloride was measured by counting in a standard 96-well plate using a MicroBeta scintillation counter.
# SERT allosteric site = biological target: T2, SERT allosteric site (Homo sapiens, UniProt P31645, I291A/T439S); assay: [3H]VLZ competition binding (SPA) in the presence of imipramine, allosteric site; conditions: 800 nM [3H]VLZ and 800 nM imipramine, NaCl; read-out: Ki, competition with [3H]VLZ (affinity for the allosteric site)
# T2 construct: GFP (C); Strep tag (purification tag); made in house; host or cells: HEK-293S GnTI- cells, baculovirus-mediated transduction
# Method: as §1
# T1 sequence (P31645 73-617 limits assumed): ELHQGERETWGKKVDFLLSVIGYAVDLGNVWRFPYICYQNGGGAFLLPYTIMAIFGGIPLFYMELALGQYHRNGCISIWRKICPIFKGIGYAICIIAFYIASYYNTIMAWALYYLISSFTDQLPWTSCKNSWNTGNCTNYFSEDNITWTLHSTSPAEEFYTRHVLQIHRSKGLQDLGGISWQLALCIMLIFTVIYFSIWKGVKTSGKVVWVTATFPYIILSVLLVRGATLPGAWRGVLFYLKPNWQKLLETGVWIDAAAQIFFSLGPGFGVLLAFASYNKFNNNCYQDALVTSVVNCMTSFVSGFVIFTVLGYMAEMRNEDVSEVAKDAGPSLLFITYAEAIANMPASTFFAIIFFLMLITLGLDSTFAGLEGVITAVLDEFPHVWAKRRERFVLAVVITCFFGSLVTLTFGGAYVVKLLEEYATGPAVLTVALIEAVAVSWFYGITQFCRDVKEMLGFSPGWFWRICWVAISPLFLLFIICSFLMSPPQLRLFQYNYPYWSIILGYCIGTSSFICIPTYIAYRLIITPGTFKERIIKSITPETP
# T2 sequence (P31645 whole entry I291A/T439S): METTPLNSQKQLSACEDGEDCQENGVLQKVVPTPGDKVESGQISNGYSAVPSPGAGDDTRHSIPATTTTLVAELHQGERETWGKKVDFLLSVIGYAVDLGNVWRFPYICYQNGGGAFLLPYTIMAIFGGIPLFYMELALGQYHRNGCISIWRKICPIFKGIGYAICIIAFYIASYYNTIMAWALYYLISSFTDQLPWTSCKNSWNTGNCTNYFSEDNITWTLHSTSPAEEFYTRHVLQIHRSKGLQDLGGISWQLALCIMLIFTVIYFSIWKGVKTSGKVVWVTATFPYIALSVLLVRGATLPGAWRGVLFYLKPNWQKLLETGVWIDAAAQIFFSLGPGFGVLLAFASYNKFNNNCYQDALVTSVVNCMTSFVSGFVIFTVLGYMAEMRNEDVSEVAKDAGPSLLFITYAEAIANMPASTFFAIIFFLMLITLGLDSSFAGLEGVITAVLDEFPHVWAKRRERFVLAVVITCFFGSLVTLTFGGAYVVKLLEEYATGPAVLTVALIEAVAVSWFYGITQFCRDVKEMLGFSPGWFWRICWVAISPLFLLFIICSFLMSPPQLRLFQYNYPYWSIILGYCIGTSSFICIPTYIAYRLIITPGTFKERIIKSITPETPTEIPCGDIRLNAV
compound,measurement,setting,value
CNCCc1c[nH]c2ccc(OC)cc12 [5-methoxy-N-methyltryptamine],Ki,SERT [1],3.9 ± 0.9 µM
Cl.Cn1cc(CCN)c2cc(O)ccc21 [3-(2-aminoethyl)-1-methyl-1H-indol-5-ol hydrochloride],substrate for SERT (uptake),SERT [2],robust substrate
same,Ki,SERT allosteric site,24.9 ± 5.4 µM
same,Ki,SERT [1],5.4 ± 1 µM
CNCCc1c[nH]c2ccc(O)cc12 [N-ω-methyl-5-hydroxytryptamine],Ki,SERT [1],2.8 ± 0.9 µM
